Each structure is given as a SMILES string.

Broadly, the melting point is the temperature, or range, at which the solid turns liquid. `Cc1cc([N+](=O)[O-])ccc1/N=C1/C2CC3CC(C2)CC(C3)N1CC(C)C` [Example 54, N-(4-Isobutyl-4-azatricyclo[4.3.1.1^3,8]undec-5-ylidene)-2-methyl-4-nitroaniline] registered a melting point of 101 to 102 °C.

For the origin of these results see patent US20030229072A1, “Cyclic and acyclic amidines and pharmaceutical compositions containing them for use as progesterone receptor binning agents” (priority 2000, published 2003).
